Test results as given in ChEMBL document CHEMBL1201862, “PubChem BioAssay data set” (2004).
Activity calls are given as the source filed them.

Assays:
[1] = target: Heat shock protein HSP 90-alpha (Homo sapiens, UniProt P07900); type: functional, organism-based
[2] = target: Phospholipase A2 (Homo sapiens, UniProt P04054); type: functional;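 also: confirmatory dose-response counterscreen on phospholipase A2, testing hits that came from an ultra-high-throughput screen for ATG4B inhibitors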
[3] = target: Genome polyprotein (dengue virus type 2, UniProt P29990); test: flavivirus cap methylation enzyme inhibition – biochemical, confirmation dose response, primary screen (AID 588689); type: functional
Genome polyprotein, sequence (P29990 2492-3391 limits assumed): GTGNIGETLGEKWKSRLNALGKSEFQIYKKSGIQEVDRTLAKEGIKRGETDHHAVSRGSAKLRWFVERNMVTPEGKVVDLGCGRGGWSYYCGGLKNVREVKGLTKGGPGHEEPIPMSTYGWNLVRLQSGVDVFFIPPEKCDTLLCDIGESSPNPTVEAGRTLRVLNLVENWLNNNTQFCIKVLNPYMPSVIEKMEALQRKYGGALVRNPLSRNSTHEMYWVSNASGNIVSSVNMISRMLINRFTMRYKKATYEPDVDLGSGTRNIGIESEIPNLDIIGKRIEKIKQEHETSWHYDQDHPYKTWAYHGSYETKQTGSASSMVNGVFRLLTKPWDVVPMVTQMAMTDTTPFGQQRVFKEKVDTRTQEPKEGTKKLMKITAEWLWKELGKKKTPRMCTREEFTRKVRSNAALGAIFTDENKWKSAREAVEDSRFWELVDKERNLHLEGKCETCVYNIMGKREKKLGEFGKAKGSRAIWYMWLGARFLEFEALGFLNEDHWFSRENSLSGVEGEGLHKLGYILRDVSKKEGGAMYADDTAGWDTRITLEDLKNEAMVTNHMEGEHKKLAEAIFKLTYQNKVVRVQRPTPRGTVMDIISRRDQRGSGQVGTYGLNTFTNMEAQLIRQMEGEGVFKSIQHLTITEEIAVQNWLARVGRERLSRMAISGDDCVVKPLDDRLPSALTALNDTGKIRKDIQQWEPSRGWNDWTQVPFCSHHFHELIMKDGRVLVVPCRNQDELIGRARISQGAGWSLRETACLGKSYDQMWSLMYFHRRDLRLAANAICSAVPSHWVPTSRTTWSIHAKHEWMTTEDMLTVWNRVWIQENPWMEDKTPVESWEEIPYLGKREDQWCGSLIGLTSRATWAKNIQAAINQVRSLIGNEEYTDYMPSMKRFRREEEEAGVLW

[4] = HEK-293T cell viability reduction – luminescence, B-cell screen hits, cytotoxicity control for BCR NF-kB inhibitor project, dose response (AID 489021); type: functional, cell-based;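 also: HEK-293T cells carrying an NF-kB luciferase reporter; cells exposed to compound for about 14 hours before viability readout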
[5] = target: Peroxisome proliferator-activated receptor gamma/Nuclear receptor coactivator 1 (Homo sapiens, UniProt P37231); test: (§1) TR-FRET dose response biochemical High Throughput Screening assay for agonists of the steroid receptor coactivator 1 (SRC-1) recruitment by the peroxisome proliferator-activated receptor gamma (PPAR gamma): non-selective agonists. [Related pubchem assays (depositor defined):AID1300, AID1808, AID504735, AID631]; type: protein assay
[6] = target: Peroxisome proliferator-activated receptor gamma/Nuclear receptor coactivator 3 (Homo sapiens, UniProt P37231); test: as §1, with “3 (SRC-3)” for “1 (SRC-1)”, “assays: 1301 (Confirmation screen.), 1048 (Primary screen.)]” for “assays (depositor defined):AID1300, AID1808, AID504735, AID631]”; type: functional
Peroxisome proliferator-activated receptor gamma/Nuclear receptor coactivator 3, sequence (P37231 whole entry): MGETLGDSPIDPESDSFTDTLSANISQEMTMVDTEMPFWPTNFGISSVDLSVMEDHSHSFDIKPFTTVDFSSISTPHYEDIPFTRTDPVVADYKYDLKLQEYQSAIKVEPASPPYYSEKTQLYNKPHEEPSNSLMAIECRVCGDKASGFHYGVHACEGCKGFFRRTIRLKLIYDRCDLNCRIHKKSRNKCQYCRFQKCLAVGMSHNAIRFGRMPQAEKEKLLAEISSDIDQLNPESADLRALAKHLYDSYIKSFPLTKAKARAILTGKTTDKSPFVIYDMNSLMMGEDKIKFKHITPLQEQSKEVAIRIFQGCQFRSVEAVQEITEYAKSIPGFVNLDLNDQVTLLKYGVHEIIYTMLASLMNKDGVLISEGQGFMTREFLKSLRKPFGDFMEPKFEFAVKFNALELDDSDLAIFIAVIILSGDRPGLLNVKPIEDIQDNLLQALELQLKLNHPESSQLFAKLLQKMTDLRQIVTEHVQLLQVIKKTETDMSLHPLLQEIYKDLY
Peroxisome proliferator-activated receptor gamma/Nuclear receptor coactivator 3, sequence (Q9Y6Q9 whole entry, further chain): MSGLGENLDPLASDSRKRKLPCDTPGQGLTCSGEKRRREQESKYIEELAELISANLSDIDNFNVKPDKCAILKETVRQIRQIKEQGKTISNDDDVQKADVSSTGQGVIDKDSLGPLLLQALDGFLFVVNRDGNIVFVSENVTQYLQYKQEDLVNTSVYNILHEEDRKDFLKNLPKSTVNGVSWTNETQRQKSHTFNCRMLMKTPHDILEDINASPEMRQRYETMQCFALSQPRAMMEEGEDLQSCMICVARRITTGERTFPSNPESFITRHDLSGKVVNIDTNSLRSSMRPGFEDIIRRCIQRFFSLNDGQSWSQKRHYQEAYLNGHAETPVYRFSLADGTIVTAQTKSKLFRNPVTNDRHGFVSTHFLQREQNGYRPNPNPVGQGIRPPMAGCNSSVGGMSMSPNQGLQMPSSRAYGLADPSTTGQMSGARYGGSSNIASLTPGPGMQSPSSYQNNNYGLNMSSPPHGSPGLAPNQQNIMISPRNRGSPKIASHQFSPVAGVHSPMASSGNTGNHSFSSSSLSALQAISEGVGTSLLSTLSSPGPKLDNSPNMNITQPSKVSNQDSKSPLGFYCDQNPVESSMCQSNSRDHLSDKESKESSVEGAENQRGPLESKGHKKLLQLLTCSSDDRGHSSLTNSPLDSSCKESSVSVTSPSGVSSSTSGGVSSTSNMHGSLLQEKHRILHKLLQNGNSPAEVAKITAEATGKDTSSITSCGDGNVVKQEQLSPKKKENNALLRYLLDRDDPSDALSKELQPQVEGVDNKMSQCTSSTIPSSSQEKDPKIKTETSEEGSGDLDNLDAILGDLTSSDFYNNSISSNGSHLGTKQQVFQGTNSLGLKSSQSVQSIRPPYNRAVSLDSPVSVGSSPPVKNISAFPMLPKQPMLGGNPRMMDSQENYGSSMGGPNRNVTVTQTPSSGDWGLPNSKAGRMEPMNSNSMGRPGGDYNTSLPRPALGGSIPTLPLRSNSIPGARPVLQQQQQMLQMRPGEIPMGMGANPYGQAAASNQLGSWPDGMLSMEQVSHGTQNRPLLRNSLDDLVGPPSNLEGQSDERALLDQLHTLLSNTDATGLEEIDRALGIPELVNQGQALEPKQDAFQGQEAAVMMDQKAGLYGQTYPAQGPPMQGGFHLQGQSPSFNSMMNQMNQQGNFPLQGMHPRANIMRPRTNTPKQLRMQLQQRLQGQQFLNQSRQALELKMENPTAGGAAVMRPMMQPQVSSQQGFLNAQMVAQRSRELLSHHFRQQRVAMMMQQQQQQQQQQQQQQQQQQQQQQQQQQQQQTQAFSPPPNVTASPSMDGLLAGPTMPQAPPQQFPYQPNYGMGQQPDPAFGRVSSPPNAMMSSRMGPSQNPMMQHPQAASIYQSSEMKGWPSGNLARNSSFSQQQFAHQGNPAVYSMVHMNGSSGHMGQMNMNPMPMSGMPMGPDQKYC

[7] = target: Peroxisome proliferator-activated receptor gamma/Nuclear receptor coactivator 2 (Homo sapiens, UniProt P37231); test: TR-FRET dose response biochemical High Throughput Screening assay for agonists of the steroid receptor coactivator 2 (SRC-2) recruitment by the peroxisome proliferator-activated receptor gamma (PPAR gamma): non-selective agonists. [Related pubchem assays: 1297, 1032 ]; type: functional
[8] = target: DNA dC->dU-editing enzyme APOBEC-3A (Homo sapiens, UniProt P31941); test: Dose Response confirmation of small molecule APOBEC3A DNA Deaminase Inhibitors via a fluorescence-based single-stranded DNA deaminase assay. [Related pubchem assays (depositor defined):AID493011, AID493024]; type: functional
DNA dC->dU-editing enzyme APOBEC-3A, sequence (P31941 whole entry): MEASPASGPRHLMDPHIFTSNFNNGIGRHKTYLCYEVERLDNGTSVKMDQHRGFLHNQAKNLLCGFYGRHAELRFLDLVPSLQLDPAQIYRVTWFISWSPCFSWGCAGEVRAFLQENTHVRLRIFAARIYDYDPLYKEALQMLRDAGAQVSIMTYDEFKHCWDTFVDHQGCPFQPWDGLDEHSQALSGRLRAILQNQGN

[9] = target: DNA dC->dU-editing enzyme APOBEC-3G (Homo sapiens, UniProt Q9HC16); type: functional;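 also: Dose-response counterscreen measuring inhibition of APOBEC3G DNA deaminase activity, run while confirming APOBEC3A inhibitors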
DNA dC->dU-editing enzyme APOBEC-3G, sequence (Q9HC16 whole entry): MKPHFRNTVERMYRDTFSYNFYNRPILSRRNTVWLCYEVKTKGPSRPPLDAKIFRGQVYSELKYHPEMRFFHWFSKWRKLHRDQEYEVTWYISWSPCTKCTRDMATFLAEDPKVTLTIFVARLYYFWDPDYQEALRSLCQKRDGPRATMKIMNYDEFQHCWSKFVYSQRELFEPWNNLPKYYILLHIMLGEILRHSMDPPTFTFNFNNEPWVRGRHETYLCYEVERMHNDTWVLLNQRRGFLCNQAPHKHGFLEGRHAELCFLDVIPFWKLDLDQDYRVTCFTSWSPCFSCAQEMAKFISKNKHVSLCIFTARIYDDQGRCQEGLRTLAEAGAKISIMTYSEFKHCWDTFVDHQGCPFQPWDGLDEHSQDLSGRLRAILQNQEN

[10] = target: T1, Protein RecA (Mycobacterium tuberculosis, UniProt P9WHJ3); test: Fluorescence Cell-Free Homogeneous Dose Retest to Identify Inhibitors of RecA-Intein Splicing Activity. [Related pubchem assays (depositor defined):AID2097, AID2223, AID489010, AID492950]; type: functional
T1 sequence (P9WHJ3 whole entry): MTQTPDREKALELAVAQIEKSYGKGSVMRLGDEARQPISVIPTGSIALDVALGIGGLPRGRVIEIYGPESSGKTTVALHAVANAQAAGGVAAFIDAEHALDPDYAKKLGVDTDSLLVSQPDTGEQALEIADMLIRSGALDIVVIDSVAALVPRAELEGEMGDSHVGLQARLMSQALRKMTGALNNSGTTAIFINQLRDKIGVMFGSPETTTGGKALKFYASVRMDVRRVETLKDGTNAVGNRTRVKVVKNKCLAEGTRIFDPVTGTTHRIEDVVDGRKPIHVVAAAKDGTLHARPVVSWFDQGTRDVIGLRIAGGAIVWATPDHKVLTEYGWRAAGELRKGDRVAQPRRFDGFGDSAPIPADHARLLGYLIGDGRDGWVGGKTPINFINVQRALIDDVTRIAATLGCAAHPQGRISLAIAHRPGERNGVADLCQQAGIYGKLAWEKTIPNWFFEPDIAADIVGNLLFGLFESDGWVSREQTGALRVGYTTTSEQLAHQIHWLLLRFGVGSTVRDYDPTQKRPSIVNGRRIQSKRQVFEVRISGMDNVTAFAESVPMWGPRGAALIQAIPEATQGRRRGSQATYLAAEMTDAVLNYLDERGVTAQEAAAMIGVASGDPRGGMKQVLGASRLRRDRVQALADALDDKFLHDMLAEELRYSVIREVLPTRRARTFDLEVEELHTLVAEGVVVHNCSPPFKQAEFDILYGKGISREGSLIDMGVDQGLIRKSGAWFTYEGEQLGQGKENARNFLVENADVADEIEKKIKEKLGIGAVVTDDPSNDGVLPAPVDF

[11] = target: T2, Replicative DNA helicase DnaB (Mycobacterium tuberculosis, UniProt P9WMR3); test: DnaB intein splicing inhibitors, dose response, biochemical, cell-free fluorescence (AID 449749); type: functional
T2 sequence (P9WMR3 whole entry): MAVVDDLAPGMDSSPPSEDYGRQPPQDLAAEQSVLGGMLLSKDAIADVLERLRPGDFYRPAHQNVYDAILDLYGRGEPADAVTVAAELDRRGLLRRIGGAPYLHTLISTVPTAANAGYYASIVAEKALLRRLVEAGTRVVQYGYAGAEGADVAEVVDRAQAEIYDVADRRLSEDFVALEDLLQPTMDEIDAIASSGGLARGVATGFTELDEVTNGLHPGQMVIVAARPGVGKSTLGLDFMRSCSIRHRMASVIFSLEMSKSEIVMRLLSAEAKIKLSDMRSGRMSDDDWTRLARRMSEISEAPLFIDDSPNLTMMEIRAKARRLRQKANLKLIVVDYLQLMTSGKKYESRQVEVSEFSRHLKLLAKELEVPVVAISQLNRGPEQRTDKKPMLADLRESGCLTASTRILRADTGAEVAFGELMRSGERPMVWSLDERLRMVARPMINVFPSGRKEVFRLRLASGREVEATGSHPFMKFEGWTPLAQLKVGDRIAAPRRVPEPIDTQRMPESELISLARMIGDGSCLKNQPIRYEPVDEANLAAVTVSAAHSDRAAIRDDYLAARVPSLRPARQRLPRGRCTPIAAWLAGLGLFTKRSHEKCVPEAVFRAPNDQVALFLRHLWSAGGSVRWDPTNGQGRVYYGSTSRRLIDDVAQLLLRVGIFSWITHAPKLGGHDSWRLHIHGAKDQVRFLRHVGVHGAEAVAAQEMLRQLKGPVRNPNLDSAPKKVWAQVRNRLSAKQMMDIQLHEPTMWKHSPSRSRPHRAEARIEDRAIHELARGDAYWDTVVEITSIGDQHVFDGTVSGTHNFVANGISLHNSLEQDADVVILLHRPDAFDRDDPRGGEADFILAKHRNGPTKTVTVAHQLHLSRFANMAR

[12] = target: 72 kDa type IV collagenase (Homo sapiens, UniProt P08253); test: Dose Response validation of uHTS RPN11 inhibitor hits using a MMP-2 Fluorescence assay.; type: functional
72 kDa type IV collagenase, sequence (P08253 whole entry): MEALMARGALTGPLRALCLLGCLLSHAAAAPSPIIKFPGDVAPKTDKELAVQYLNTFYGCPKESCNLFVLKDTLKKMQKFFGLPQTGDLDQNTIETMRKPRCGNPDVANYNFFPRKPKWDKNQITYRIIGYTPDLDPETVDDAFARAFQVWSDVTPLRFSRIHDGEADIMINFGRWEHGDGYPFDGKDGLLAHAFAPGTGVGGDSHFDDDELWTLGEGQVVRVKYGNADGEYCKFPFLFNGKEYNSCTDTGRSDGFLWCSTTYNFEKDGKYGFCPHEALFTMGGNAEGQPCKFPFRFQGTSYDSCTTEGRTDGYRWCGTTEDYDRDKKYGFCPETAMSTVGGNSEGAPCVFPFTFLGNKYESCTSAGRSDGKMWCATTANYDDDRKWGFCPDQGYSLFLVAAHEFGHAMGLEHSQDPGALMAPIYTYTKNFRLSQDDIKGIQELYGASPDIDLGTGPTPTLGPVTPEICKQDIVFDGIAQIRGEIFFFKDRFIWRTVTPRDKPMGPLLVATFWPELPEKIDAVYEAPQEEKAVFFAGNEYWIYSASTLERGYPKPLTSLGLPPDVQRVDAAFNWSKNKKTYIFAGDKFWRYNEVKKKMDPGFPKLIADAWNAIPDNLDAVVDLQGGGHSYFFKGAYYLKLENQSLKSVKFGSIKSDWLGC

[13] = target: 26S proteasome non-ATPase regulatory subunit 14 (Homo sapiens, UniProt O00487); test: inhibition of proteasome subunit RPN11 – biochemical, fluorescence polarization, uHTS hits, confirmation (AID 602368); type: functional
26S proteasome non-ATPase regulatory subunit 14, sequence (O00487 whole entry): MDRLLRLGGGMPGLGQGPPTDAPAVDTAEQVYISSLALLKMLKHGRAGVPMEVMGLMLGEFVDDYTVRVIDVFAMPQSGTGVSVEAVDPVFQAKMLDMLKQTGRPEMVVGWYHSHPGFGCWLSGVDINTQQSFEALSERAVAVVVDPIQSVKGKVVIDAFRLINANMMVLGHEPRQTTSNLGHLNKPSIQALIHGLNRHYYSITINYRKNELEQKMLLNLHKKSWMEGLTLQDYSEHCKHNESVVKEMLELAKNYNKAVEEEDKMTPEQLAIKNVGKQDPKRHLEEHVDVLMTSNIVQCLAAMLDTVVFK

[14] = target: Nonstructural protein 1 (Influenza A virus, UniProt Q194T2); type: functional, Influenza A virus (A/California/07/2009(H1N1))
Nonstructural protein 1, sequence (Q194T2 whole entry): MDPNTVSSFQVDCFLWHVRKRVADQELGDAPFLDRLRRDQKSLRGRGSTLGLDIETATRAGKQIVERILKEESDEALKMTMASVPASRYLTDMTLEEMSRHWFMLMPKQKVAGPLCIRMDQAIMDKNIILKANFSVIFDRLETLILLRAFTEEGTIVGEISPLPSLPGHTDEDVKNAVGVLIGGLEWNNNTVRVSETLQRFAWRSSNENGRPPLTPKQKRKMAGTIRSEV

[15] = target: T3, High affinity choline transporter 1 (Homo sapiens, UniProt Q9GZV3); test: human choline transporter blockers, potency – cell-based, 5-point CRC, membrane potential dye, dose response (AID 504840); type: functional
T3 sequence (Q9GZV3 whole entry): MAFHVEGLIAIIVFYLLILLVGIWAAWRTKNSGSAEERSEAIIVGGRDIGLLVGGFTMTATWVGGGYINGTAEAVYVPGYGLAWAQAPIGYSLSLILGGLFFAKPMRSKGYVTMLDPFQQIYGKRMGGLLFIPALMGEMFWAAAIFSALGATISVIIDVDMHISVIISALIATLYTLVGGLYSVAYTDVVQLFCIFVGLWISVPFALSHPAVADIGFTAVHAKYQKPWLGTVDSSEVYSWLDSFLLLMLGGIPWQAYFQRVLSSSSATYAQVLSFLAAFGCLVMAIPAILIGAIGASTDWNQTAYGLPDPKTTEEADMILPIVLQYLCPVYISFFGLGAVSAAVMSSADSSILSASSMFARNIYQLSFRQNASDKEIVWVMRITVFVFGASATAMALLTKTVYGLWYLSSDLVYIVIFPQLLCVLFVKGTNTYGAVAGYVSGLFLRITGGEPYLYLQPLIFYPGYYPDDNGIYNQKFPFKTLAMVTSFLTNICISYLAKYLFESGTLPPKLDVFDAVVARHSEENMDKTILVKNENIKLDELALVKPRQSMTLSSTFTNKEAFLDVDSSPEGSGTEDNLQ

[16] = target: Prothrombin (Bos taurus, UniProt P00735); test: thrombin protease inhibitors – biochemical, fluorescence polarization, uHTS hits, dose response (AID 602369); type: functional
[17] = target: T4, RNA-binding protein pos-1 (Caenorhabditis elegans, UniProt G5EF15); test: disruptors of C. elegans POS-1 RNA interaction – biochemical, fluorescence polarization, dose response (AID 1964);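 also: purified POS-1 fused to maltose binding protein made in E. coli; potency of compounds blocking POS-1 binding to fluorescent RNA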
T4 sequence (G5EF15 whole entry): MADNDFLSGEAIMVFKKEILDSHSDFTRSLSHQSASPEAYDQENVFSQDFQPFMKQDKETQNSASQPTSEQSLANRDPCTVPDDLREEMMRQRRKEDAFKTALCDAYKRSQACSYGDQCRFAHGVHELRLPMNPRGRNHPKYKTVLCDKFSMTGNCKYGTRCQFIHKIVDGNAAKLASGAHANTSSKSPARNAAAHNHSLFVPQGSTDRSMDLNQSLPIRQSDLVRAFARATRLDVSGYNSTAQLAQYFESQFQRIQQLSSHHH

[18] = target: T5, Zinc finger protein mex-5 (Caenorhabditis elegans, UniProt Q9XUB2); test: potency of MEX-5 RNA-binding blockers – biochemical, C. elegans, fluorescence polarization, dose response (AID 1960)
T5 sequence (Q9XUB2 whole entry): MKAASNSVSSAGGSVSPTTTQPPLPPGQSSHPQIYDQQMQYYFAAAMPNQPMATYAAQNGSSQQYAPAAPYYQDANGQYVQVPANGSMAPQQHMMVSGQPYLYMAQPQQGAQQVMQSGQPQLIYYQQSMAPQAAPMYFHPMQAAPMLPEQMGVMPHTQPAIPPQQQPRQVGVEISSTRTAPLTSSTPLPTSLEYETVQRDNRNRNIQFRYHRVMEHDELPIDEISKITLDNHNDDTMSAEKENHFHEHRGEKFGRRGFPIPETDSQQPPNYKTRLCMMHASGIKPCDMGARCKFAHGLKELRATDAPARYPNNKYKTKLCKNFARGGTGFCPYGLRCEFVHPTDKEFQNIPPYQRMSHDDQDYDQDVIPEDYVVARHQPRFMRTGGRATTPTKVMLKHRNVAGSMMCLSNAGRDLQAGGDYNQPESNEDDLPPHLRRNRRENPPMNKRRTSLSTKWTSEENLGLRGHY

[19] = target: T6, Heat shock factor protein 1 (Mus musculus, UniProt P38532); test: decrease of HSF1-responsive luciferase luminescence – cell-based, NIH3T3, dose retest, confirmation (AID 2382); type: functional;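 also: NIH3T3 fibroblasts with HSF1-driven luciferase reporter stressed by proteasome inhibitor MG132; luminescence from HSF1-driven luciferase expression after 8 hours of MG132 stress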
T6 sequence (P38532 whole entry): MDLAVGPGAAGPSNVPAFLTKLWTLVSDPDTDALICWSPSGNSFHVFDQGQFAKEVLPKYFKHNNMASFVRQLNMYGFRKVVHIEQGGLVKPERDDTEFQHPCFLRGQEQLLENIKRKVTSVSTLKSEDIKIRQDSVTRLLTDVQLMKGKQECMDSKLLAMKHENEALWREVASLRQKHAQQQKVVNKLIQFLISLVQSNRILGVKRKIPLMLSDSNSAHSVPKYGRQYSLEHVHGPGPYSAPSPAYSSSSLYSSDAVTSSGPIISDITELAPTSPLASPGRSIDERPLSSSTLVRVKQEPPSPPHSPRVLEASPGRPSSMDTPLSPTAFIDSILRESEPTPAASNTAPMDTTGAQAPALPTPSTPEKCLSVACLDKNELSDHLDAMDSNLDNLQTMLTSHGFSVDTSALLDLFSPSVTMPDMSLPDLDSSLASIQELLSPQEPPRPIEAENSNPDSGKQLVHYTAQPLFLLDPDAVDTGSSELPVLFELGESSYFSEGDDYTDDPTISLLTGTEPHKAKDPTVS

[20] = target: T7, Carboxy-terminal domain RNA polymerase II polypeptide A small phosphatase 1 (Homo sapiens, UniProt Q9GZU7); test: CTDSP1 inhibitors, concentration-response, biochemical, absorbance readout, ultra-high-throughput screen actives (AID 540297); type: functional
T7 sequence (Q9GZU7 whole entry): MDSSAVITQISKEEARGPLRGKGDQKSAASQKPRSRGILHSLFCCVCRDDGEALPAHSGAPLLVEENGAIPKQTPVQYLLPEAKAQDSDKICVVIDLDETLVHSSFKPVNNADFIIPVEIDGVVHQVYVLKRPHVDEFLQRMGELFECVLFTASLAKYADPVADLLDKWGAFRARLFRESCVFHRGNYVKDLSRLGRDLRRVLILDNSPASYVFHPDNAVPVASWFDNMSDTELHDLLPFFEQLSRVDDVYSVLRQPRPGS

Phospholipase A2, sequence (P04054 whole entry): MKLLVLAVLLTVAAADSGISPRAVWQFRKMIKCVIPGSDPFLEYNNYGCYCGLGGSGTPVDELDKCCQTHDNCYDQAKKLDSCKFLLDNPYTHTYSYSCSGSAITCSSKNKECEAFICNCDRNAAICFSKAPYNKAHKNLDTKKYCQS

CCCOc1ccc2ccccc2c1/C=C1\SC(=O)NC1=O
AC50 [1]: 6.89 µM (active) | IC50 [2]: 15.9 µM (active)

COc1cc(/C=C2/C(=O)NC(=O)N(c3ccccc3)C2=O)ccc1O
IC50 [3]: > 100 µM (active)

CCn1c(=O)cc(SCC(=O)N2CCOCC2)c2ccccc21
IC50 [4]: > 80 µM (inactive) | EC50 [5]: > 79.4 µM (inactive) | EC50 [6]: > 79.4 µM (not active) | EC50 [7]: > 79.4 µM (not active)

O=C(COc1ccccc1/C=C1/NC(=O)NC1=O)Nc1ccccc1
IC50 [8]: 3.71 µM (active) | IC50 [9]: 3.26 µM (active)

CCOc1c(Br)cc(/C=C2\C(=O)N(CCC#N)N=C2C)cc1OC
IC50 [3]: > 100 µM (active) | EC50 [10]: 1.8 µM (active) | AC50 [11]: 3.43 µM (active)

COc1cc(/C=C2/C(=O)N(c3cccc(Br)c3)N=C2C)cc(OC)c1O
IC50 [12]: > 100 µM (inactive) | EC50 [10]: 1.6 µM (active) | IC50 [13]: 23.1 µM (active) | IC50 [14]: 14.5 µM (active) | IC50 [15]: 13.8 µM (active) | AC50 [11]: 3.93 µM (active) | IC50 [16]: 39 µM (active)

Cc1ccc(N2C(=O)NC(=O)/C(=C\c3cc(C)n(-c4ccc(C(=O)O)cc4)c3C)C2=O)cc1
IC50 [3]: > 100 µM (active) | EC50 [17]: > 300 µM (not active) | EC50 [18]: 6.96 µM (active)

COc1ccc(CNC(=O)c2nnn(CC(=O)Nc3cc(C)cc(C)c3)c2N)cc1
IC50 [12]: > 100 µM (inactive) | IC50 [13]: 18.9 µM (active) | IC50 [16]: 63 µM (active) | EC50 [19]: > 195 µM (not active)

COc1ccccc1-c1nnc(S)o1
EC50 [5]: 59.1 µM (inactive) | EC50 [6]: > 79.4 µM (not active) | EC50 [7]: 11.9 µM (not active)

O=C(O)c1cc(/C=C/C(=O)c2cc(F)ccc2O)c2c(c1)COCO2
IC50 [3]: > 100 µM (active)

CSc1ccc(NC(=O)CSc2nc3[nH]c(=O)cc(O)c3s2)cc1
IC50 [20]: 4.06 µM (active) | IC50 [12]: 40.4 µM (active) | IC50 [13]: 68 µM (active) | IC50 [16]: 88.3 µM (active)
